Data: patent US11046716B2, “Beta-lactamase inhibitors” (priority 2015, dated 2021)

Key:
[1] = test system: P. aeruginosa expressing the Class B carbapenemase VIM-2; assay: Broth microdilution MIC assay with meropenem, P. aeruginosa VIM-2; format: cell-based; settings: Fixed Mero (meropenem) 4 μg/mL; P. aerug. 2775 VIM-2
In short: (§1)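 Test compound was titrated 2-fold from 16 to 0.125 μg/mL in cation-adjusted Mueller Hinton broth against a fixed 4 μg/ml β-lactam overlay. Plates were inoculated per CLSI broth microdilution, incubated 16-20 hours at 37° C, and the MIC of the test compound was read visually.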

[2] = test system: K. pneumoniae expressing the class A carbapenemase KPC-2 and the class B carbapenemase VIM-4; assay: Broth microdilution MIC assay with meropenem, K. pneumoniae KPC-2 and VIM-4; format: cell-based; settings: Fixed Mero (meropenem) 4 μg/mL; K. p. A-1797 KPC-2 VIM-4
In short: as §1

[3] = test system: E. coli expressing the Class A Extended Spectrum Beta-Lactamase (ESBL) CTX-M-15; assay: Broth microdilution MIC assay with ceftazidime, E. coli CTX-M-15; format: cell-based; settings: Fixed CAZ (ceftazidime) 4 μg/mL; E. coli ESBL4 CTX-M-15
In short: as §1

[4] = biological target: T1, SHV-5 (Klebsiella pneumoniae, UniProt P0A3M1); assay: β-lactamase enzyme inhibition assay, SHV-5 (cefotaxime substrate); format: biochemical
T1 construct: made in house; host or cells: E. coli BL21(DE3)
T1 sequence (P0A3M1 22-286): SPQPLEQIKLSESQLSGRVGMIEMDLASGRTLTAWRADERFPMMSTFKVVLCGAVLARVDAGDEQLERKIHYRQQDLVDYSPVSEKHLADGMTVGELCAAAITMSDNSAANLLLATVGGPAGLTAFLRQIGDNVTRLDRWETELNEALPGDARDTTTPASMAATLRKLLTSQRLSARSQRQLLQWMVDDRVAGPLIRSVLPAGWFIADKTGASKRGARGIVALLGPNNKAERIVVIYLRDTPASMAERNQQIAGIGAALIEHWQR
In short: (§2)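 Native untagged β-lactamases were expressed in E. coli BL21(DE3), then purified by cation exchange and gel filtration. Enzyme was preincubated with inhibitor for 15 min at 37 °C before substrate was added. Imipenem (A300) served KPC-2 and cefotaxime (A260) served SHV-5. IC50 was taken from initial hydrolysis rates relative to no-inhibitor controls.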

[5] = test system: K. pneumoniae expressing the Class A carbapenemase KPC-2; assay: Broth microdilution MIC assay with meropenem, K. pneumoniae KPC-2; format: cell-based; settings: Fixed Mero (meropenem) 4 μg/mL; K. p. 156319 KPC-3
In short: as §1

[6] = test system: E. cloacae expressing the Class C P99; assay: Broth microdilution MIC assay with ceftazidime, E. cloacae P99; format: cell-based; settings: Fixed CAZ (ceftazidime) 4 μg/mL; E. cl. 144200 p99 AmpC
In short: as §1

[7] = biological target: T2, VIM-2 (Escherichia coli, UniProt Q5U7L7); assay: β-lactamase enzyme inhibition assay, VIM-2 (nitrocefin substrate); format: biochemical; settings: Class B; nitrocefin substrate, 486 nm; read-out: VIM-2
T2 construct: made in house; host or cells: E. coli BL21(DE3)
In short: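 Purified VIM-2 (Q sepharose anion exchange, Hepes pH 7.5, >90% pure) was preincubated with inhibitor at 37 °C for 15 min, then nitrocefin added at 100 μM final. Absorbance at 486 nm was followed for 10 min; IC50 was taken from maximum hydrolysis rates relative to inhibitor-free controls.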

[8] = test system: K. pneumoniae producing the Class D carbapenemase OXA-48; assay: Broth microdilution MIC assay with meropenem, K. pneumoniae OXA-48; format: cell-based; settings: Fixed Mero (meropenem) 4 μg/mL; K. p. 11978 OXA-48
In short: as §1

[9] = biological target: T3, KPC-2 (Klebsiella pneumoniae, UniProt Q9F663); assay: β-lactamase enzyme inhibition assay, KPC-2 (imipenem substrate); format: biochemical; settings: Class A; imipenem substrate, 300 nm; read-out: KPC-2
T3 construct: made in house; host or cells: E. coli BL21(DE3)
T3 sequence (Q9F663 25-293, looked up): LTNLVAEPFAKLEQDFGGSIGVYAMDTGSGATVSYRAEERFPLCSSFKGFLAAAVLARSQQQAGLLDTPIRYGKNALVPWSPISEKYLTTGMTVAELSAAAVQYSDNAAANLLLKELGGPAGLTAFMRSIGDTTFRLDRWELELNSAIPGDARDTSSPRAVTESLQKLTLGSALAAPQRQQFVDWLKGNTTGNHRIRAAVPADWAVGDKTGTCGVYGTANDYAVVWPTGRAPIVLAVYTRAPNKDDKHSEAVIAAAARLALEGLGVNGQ
In short: as §2

[10] = biological target: OXA-48 (UniProt Q6XEC0); assay: β-lactamase enzyme inhibition assay, Class D oxacillinase; format: biochemical; settings: read-out: OXA-48
[11] = biological target: T4, AmpC (Enterobacter cloacae, UniProt P05364); assay: β-lactamase enzyme inhibition assay, p99 AmpC (nitrocefin substrate); format: biochemical
T4 construct: made in house; host or cells: E. coli BL21(DE3)
T4 sequence (P05364 21-381): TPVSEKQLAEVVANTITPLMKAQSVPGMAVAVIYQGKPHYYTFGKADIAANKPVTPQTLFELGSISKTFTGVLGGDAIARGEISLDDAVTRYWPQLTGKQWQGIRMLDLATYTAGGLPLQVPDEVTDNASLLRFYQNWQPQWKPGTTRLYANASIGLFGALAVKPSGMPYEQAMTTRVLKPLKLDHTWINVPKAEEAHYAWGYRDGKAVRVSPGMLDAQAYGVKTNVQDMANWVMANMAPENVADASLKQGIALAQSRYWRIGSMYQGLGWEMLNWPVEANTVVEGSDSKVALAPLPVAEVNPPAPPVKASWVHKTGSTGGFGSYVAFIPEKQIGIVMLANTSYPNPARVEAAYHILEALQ
In short: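 Native untagged β-lactamases were expressed in E. coli BL21(DE3), then purified by cation exchange and gel filtration. Enzyme was preincubated with inhibitor for 15 min at 37 °C before substrate was added. IC50 was taken from initial hydrolysis rates relative to no-inhibitor controls.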

## O=C(Cc1nnn[nH]1)N[C@H]1Cc2cccc(C(=O)O)c2OB1O [Example 40, (R)-3-(2-(1H-tetrazol-5-yl)acetamido)-2-hydroxy-3,4-dihydro-2H-benzo[e][1,2]oxaborinine-8-carboxylic acid]
[1]
  MIC (μg/mL) of Exemplary Compounds in presence of fixed β-lactams: P. aerug. 2775 VIM-2: B (B represents an MIC between 1 and 16 μg/mL inclusive)
[2]
  MIC (μg/mL) of Exemplary Compounds in presence of fixed β-lactams: K. p. A-1797 KPC-2 VIM-4: B (B represents an MIC between 1 and 16 μg/mL inclusive)
[3]
  MIC (μg/mL) of Exemplary Compounds in presence of fixed β-lactams: E. coli ESBL4 CTX-M-15: C (C represents an MIC of <1 μg/mL)
[4]
  IC50: < 100 nM
[5]
  MIC (μg/mL) of Exemplary Compounds in presence of fixed β-lactams: K. p. 156319 KPC-3: C (C represents an MIC of <1 μg/mL)
[6]
  MIC (μg/mL) of Exemplary Compounds in presence of fixed β-lactams: E. cl. 144200 p99 AmpC: C (C represents an MIC of <1 μg/mL)
[7]
  IC50: 1000 to 10000 nM
[8]
  MIC (μg/mL) of Exemplary Compounds in presence of fixed β-lactams: K. p. 11978 OXA-48: B (B represents an MIC between 1 and 16 μg/mL inclusive)
[9]
  IC50: < 100 nM
[10]
  IC50: 100 to 1000 nM
[11]
  IC50: < 100 nM

## NCCn1nnnc1CC(=O)N[C@H]1Cc2cccc(C(=O)O)c2OB1O [Example 41, (R)-3-(2-(1-(2-aminoethyl)-1H-tetrazol-5-yl)acetamido)-2-hydroxy-3,4-dihydro-2H-benzo[e][1,2]oxaborinine-8-carboxylic acid]
[1]
  MIC (μg/mL) of Exemplary Compounds in presence of fixed β-lactams: P. aerug. 2775 VIM-2: C (C represents an MIC of <1 μg/mL)
[2]
  MIC (μg/mL) of Exemplary Compounds in presence of fixed β-lactams: K. p. A-1797 KPC-2 VIM-4: C (C represents an MIC of <1 μg/mL)
[3]
  MIC (μg/mL) of Exemplary Compounds in presence of fixed β-lactams: E. coli ESBL4 CTX-M-15: C (C represents an MIC of <1 μg/mL)
[4]
  IC50: < 100 nM
[5]
  MIC (μg/mL) of Exemplary Compounds in presence of fixed β-lactams: K. p. 156319 KPC-3: C (C represents an MIC of <1 μg/mL)
[6]
  MIC (μg/mL) of Exemplary Compounds in presence of fixed β-lactams: E. cl. 144200 p99 AmpC: C (C represents an MIC of <1 μg/mL)
[7]
  IC50: < 100 nM
[8]
  MIC (μg/mL) of Exemplary Compounds in presence of fixed β-lactams: K. p. 11978 OXA-48: B (B represents an MIC between 1 and 16 μg/mL inclusive)
[9]
  IC50: < 100 nM
[10]
  IC50: 100 to 1000 nM
[11]
  IC50: < 100 nM

## NCCn1nnc(CC(=O)N[C@H]2Cc3cccc(C(=O)O)c3OB2O)n1 [Example 42, (R)-3-(2-(2-(2-aminoethyl)-2H-tetrazol-5-yl)acetamido)-2-hydroxy-3,4-dihydro-2H-benzo[e][1,2]oxaborinine-8-carboxylic acid]
[1]
  MIC (μg/mL) of Exemplary Compounds in presence of fixed β-lactams: P. aerug. 2775 VIM-2: C (C represents an MIC of <1 μg/mL)
[2]
  MIC (μg/mL) of Exemplary Compounds in presence of fixed β-lactams: K. p. A-1797 KPC-2 VIM-4: C (C represents an MIC of <1 μg/mL)
[3]
  MIC (μg/mL) of Exemplary Compounds in presence of fixed β-lactams: E. coli ESBL4 CTX-M-15: C (C represents an MIC of <1 μg/mL)
[4]
  IC50: < 100 nM
[5]
  MIC (μg/mL) of Exemplary Compounds in presence of fixed β-lactams: K. p. 156319 KPC-3: C (C represents an MIC of <1 μg/mL)
[6]
  MIC (μg/mL) of Exemplary Compounds in presence of fixed β-lactams: E. cl. 144200 p99 AmpC: C (C represents an MIC of <1 μg/mL)
[7]
  IC50: < 100 nM
[8]
  MIC (μg/mL) of Exemplary Compounds in presence of fixed β-lactams: K. p. 11978 OXA-48: B (B represents an MIC between 1 and 16 μg/mL inclusive)
[9]
  IC50: < 100 nM
[10]
  IC50: 100 to 1000 nM
[11]
  IC50: < 100 nM
